In patent publication US20160193278A1, “METHODS AND COMPOSITIONS FOR PREVENTING OR TREATING LEBER'S HEREDITARY OPTIC NEUROPATHY” (STEALTH BIOTHERAPEUTICS CORP, priority 2013, published 2016):
Where no end group is shown, it is not given here. [ ]: non-standard residue; d: D form.

Legend:
[1] = target: mu-opioid receptor (Homo sapiens, UniProt P35372); conditions: cited from earlier work
[2] = test system: excessive production of reactive oxygen species; conditions: cited from earlier work
[3] = test system: brain mitochondrial H2O2 production; experiment: Brain mitochondrial / synaptosome H2O2 production with rotenone; type: biochemical, mouse; conditions: for decrease of the rate of generation of H2O2 during RET conditions: succinate plus oligomycin
[4] = test system: several mammalian cell types; conditions: cited from earlier work
[5] = test system: quails; conditions: group with high zeaxanthin concentrations; cited from earlier work
[6] = test system: murine model of LHON (ND6 P25L mutation); experiment: Prevention of LHON in ND6 P25L mouse model (Example 1); type: in vivo; conditions: ND6 P25L mice
[7] = test system: murine model of LHON (ND6 P25L mutation); experiment: Treatment of LHON in ND6 P25L mouse model (Example 2); type: in vivo; conditions: ND6 P25L mice
[8] = test system: human subjects at risk of having, suspected of having, or diagnosed as having LHON; experiment: Prevention and treatment of LHON in human subjects (Example 3); type: in vivo
Method: Human subjects at risk of having, suspected of having, or diagnosed as having LHON are administered a therapeutically effective amount of an aromatic-cationic peptide of the present technology, such as D-Arg-2′,6′-Dmt-Lys-Phe-NH2, alone or in conjunction with one or more additional therapeutic agents, on a therapeutic schedule appropriate for the prophylactic/therapeutic needs of the individual.
LHON patients are administered 1-10 μg D-Arg-2′,6′-Dmt-Lys-Phe-NH2 or saline vehicle subcutaneously once daily for 12 months. In another treatment group, LHON patients receive 1 drop of 1%, 3%, or 5% D-Arg-2′,6′-Dmt-Lys-Phe-NH2 ophthalmic solution or saline vehicle in both eyes three times per day for 12 months. Subjects are assessed periodically for signs and symptoms associated with LHON according to one or more criteria described herein.

[9] = test system: LHON cybrid cells (11778/ND4, 3460/ND1, 14484/ND6); experiment: ATP synthesis rate in LHON cybrids (Example 4); type: cell-based, human; conditions: 1-10 μg, compared to untreated LHON cybrid cells
From the text: (§1) Cybrid cell lines are constructed using enucleated fibroblasts from a control individual (i.e., negative for LHON) and 3 unrelated probands with LHON as mitochondria donors. One control cybrid cell line and three LHON cybrid cell lines, one for each of the most common pathogenic mutations found in LHON, i.e., mutations at positions 11778/ND4, 3460/ND1, and 14484/ND6 of mtDNA, are produced.
(§2) The mitochondrial donor cytoplast is fused with the osteosarcoma (143B.TK-)-derived 206 cell line (rho^0 206 cell line). All fibroblast cell lines are established from skin biopsy samples or from umbilical cord specimens after having obtained the informed consent of LHON and control patients. […]
(§3) 1 ml of each cybrid cell line at 5×10^6 cells/ml is individually plated in tissue culture plates with growth media. […] After incubation for 1 hour at 37° C., the ATP synthesis rate and cellular respiration are measured.
The ATP synthesis rate is assayed by permeabilizing the cells with digitonin according to the method described by Ouhabi et al., Anal Biochem., 263: 169-175 (1998). […] The ATP content is measured using the luciferin-luciferase chemiluminescent method, e.g., described in Stanley et al., Anal Biochem., 29: 381-392 (1969).

[10] = test system: LHON cybrid cells (11778/ND4, 3460/ND1, 14484/ND6); experiment: Respiratory rate of digitonin-permeabilized LHON cybrids (Example 4); type: cell-based, human; conditions: 1-10 μg, compared to untreated LHON cybrid cells
From the text: as §1
as §2, with “patients. Cell fusions of fibroblast-derived cytoplasts (enucleated fibroblasts) with the rho^0 206 cells are performed using the protocol, e.g., described in King et al., Science, 246: 500-03 (1989).” for “patients.”
as §3
Respiratory rates of digitonin-permeabilized cell samples are measured at 30° C. using a Clark-type oxygen electrode as previously described by Aicardi et al., Biochem Pharmacol., 31:3703-3705 (1982). The respiratory control ratio (RCR) is evaluated using glutamate-malate as a substrate.

[11] = test system: reactive oxygen species (ROS) production; conditions: known in the art; demonstrated in U.S. Pat. Nos. 7,550,439 and 7,576,061; cited from earlier work
[12] = test system: caspase activation and apoptosis; conditions: known in the art; cited from earlier work
[13] = test system: LHON patients; conditions: cited from earlier work
[14] = test system: LHON patients; conditions: 900 mg/d for 24 weeks, vs placebo; preliminary press release; cited from earlier work
[15] = once daily from 0-14 months of age
[16] = once daily from 14-24 months of age

mu-opioid receptor, sequence (P35372 whole entry, species assumed): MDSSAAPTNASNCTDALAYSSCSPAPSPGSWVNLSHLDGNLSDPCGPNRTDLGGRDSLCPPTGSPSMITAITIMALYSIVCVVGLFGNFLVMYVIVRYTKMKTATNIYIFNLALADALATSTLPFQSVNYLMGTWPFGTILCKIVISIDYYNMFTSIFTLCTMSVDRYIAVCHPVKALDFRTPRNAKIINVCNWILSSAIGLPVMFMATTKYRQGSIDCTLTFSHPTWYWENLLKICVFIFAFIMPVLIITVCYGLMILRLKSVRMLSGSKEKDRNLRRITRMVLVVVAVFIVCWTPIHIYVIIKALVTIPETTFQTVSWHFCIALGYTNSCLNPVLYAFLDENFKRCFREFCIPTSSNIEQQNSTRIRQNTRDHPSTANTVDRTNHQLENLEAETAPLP

Compound: Tyr-D-Arg-Phe-Lys-NH2
- mu-opioid receptor agonist activity [1]: has mu-opioid receptor agonist activity

Compound: N[C@@H](CCC(=O)N[C@@H](CS)C(=O)NCC(=O)O)C(=O)O [glutathione]
- protective effects in vitro [2]: modest protective effects

Compound: COC1=C(OC)C(=O)C(C/C=C(\C)CC/C=C(\C)CC/C=C(\C)CC/C=C(\C)CC/C=C(\C)CC/C=C(\C)CC/C=C(\C)CC/C=C(\C)CC/C=C(\C)CCC=C(C)C)=C(C)C1=O [coenzyme Q-10]
- protective effects in vitro [2]: modest protective effects

Compound: C=C(C)[C@H]1Cc2c(ccc3c2O[C@@H]2COc4cc(OC)c(OC)cc4[C@@H]2C3=O)O1 [rotenone]
- decrease of the rate of generation of H2O2 during RET conditions ([3]; ND6 P25L mice): approximately 59%
- increase of the rate of H2O2 production during forward electron transfer ([3]; ND6 P25L synaptosomes): ~2.7 fold
- decrease of the rate of generation of H2O2 during RET conditions ([3]; wild-type animals): approximately 79%
- increase of the rate of H2O2 production during forward electron transfer ([3]; wild-type synaptosomes): ~2.3 fold

Compound: Cc1c(C)c2c(c(C)c1O)CCC(C)(C(=O)O)O2 (stereo not drawn) [Trolox]
- protective effects in vitro [2]: modest protective effects

Compound: 2′,6′-Dmt-D-Arg-Phe-Lys-NH2
- penetration of the plasma membrane [4]: readily penetrates the plasma membrane of several mammalian cell types in an energy-independent manner

Compound: CC1=C(/C=C/C(C)=C/C=C/C(C)=C/C=C/C=C(C)/C=C/C=C(C)/C=C/C2=C(C)C[C@@H](O)CC2(C)C)C(C)(C)C[C@H](O)C1 [zeaxanthin]
- light damage of the retina (apoptotic photoreceptor cells) [5]: minimal damage

Compound: F[dR]FK-NH2
- mu-opioid receptor agonist activity [1]: does not have mu-opioid receptor agonist activity

Compound: D-Arg-2′,6′-Dmt-Lys-Phe-NH2
- RGC axonal swelling and preferential loss of smallest fibers [6, 15]: prevent the onset of, delay the onset of, or reduce the severity of these effects
- abnormal mitochondrial morphology and proliferation in RGC axons [6, 15]: prevent the onset of, delay the onset of, or reduce the severity of these effects
- altered liver mitochondria complex I activity [6, 15]: prevent the onset of, delay the onset of, or reduce the severity of these effects
- effects of the ND6 P25L mutation; LHON and its symptoms [6, 15]: prevent the onset of, delay the onset of, and/or reduce the severity (e.g., ameliorate) of the effects of the ND6 P25L mutation
- forward / reverse electron flow ROS production in liver mitochondria [6, 15]: prevent the onset of, delay the onset of, or reduce the severity of these effects
- reduced complex I activity and altered ROS production in synaptosomes [6, 15]: prevent the onset of, delay the onset of, or reduce the severity of these effects
- reduced retinal response (electroretinogram deficits) [6, 15]: prevent the onset of, delay the onset of, or reduce the severity of (e.g. ameliorate) these effects
- effect of combination compared to any individual therapeutic agent alone ([6]; in combination with one or more additional therapeutic agents, prevention): synergistic effects
- RGC axonal swelling and preferential loss of smallest fibers [7, 16]: reduce or eliminate the effects of the ND6 P25L mutation
- abnormal mitochondrial morphology and proliferation in RGC axons [7, 16]: reduce or eliminate the effects of the ND6 P25L mutation
- altered liver mitochondria complex I activity [7, 16]: reduce or eliminate the effects of the ND6 P25L mutation
- forward / reverse electron flow ROS production in liver mitochondria [7, 16]: reduce or eliminate the effects of the ND6 P25L mutation
- reduced complex I activity and altered ROS production in synaptosomes [7, 16]: reduce or eliminate these effects of the ND6 P25L mutation
- reduced retinal response (electroretinogram deficits) [7, 16]: reduce or eliminate the effects of the ND6 P25L mutation
- effect of combination compared to any individual therapeutic agent alone ([7]; in combination with one or more additional therapeutic agents, treatment): synergistic effects
- symptoms of LHON ([8]; human subjects at risk of, suspected of or diagnosed as having LHON): prevent the onset of, delay the onset of, or reduce the severity of the symptoms of LHON
- effect of combination compared to any individual therapeutic agent alone ([8]; in combination with one or more additional therapeutic agents, human subjects): synergistic effects
- ATP synthesis rate [9]: greater ATP synthesis rate
- respiratory rate [10]: higher respiratory rate
- mu-opioid receptor agonist activity [1]: does not have mu-opioid receptor agonist activity
- anti-oxidant properties [11]: possess anti-oxidant properties
- caspase activation and apoptosis [12]: capacity to inhibit caspase activation and apoptosis

Compound: COC1=C(OC)C(=O)C(CCCCCCCCCCO)=C(C)C1=O [idebenone]
- diameter of the central scotomas after treatment ([13]; one 11778/ND4 LHON patient, from about 20 degrees): less than 5 degrees
- recovery of visual function ([13]; seven LHON patients, about 450 mg/d): recovery of visual acuity, color vision, and visual fields
- final visual acuity [14]: better final visual acuity than the placebo group
